The text below walks through data of ChEMBL document CHEMBL5329159, “Anti-proliferative activity of nitroquinolone fused acylhydrazones as non-small cell human lung cancer agents” (RSC Med Chem, 2023).

Series [1] can be described thus: Induction of morphological changes in HEK cells assessed as cell blebbing incubated for 24 hrs by inverted light microscopic analysis. It counts as toxicity, cell-based. To be noted: human.
For series [2], the system named is A549. The experiment in a line: Induction of morphological changes in human A549 cells assessed as membrane blebbing by inverted light microscopic analysis. It counts as functional, cell-based.
Another series relates to HeLa. The series can be described thus: Cytotoxicity against human HeLa cells assessed as reduction in cell viability incubated for 72 hrs by MTT assay. Format: functional, cell-based. Background: Tetrazolium dyes change colour on reduction, which living cells bring about.
The test system of series [3] is A549. The series can be described thus: Cytotoxicity against human A549 cells assessed as reduction in cell viability incubated for 72 hrs by MTT assay. It counts as functional, cell-based. The note with it: A549, 72 h.
The next series has as its system MCF7. The experiment in a line: Cytotoxicity against human MCF7 cells assessed as reduction in cell viability incubated for 72 hrs by MTT assay. Format: functional, cell-based. To be noted: MCF7, 72 h.
The test system of series [4] is A549. The series can be described thus: Induction of chromatin condensation in human A549 cells incubated for 24 hrs by DAPI staining based fluorescence microscopic analysis. It counts as functional, cell-based.
For series [5], the system named is A549. The experiment in a line: Induction of morphological changes in human A549 cells assessed as cell shrinkage by inverted light microscopic analysis. It counts as functional, cell-based.
The test system of series [6] is A549. The experiment in a line: Induction of nuclear fragmentation in human A549 cells incubated for 24 hrs by DAPI staining based fluorescence microscopic analysis. Format: functional, cell-based.
Series [7] deals with A549. The experiment in a line: Induction of morphological changes in human A549 cells assessed as formation of floating cells by inverted light microscopic analysis. Format: functional, cell-based.
The nature of series [8]: Induction of morphological changes in HEK cells assessed as cell detachment incubated for 24 hrs by inverted light microscopic analysis. It counts as toxicity, cell-based. The note with it: human.
In series [9] the test system is A549. The experiment in a line: Induction of cell cycle arrest in human A549 cells assessed as accumulation of cells at G2/M phase after 24 hrs by PI/RNase staining based flow cytometry analysis. Format: functional. (In general: In flow cytometry, cells or beads pass a laser one at a time.)
Series [10] is described as follows: Cytotoxicity against HEK cells assessed as reduction in cell viability upto 200 uM incubated for 72 hrs by MTT assay. It counts as toxicity, cell-based. The note with it: human.
Series [11] concerns A549. The experiment in a line: Induction of cell cycle arrest in human A549 cells assessed as accumulation of cells at G0/G1 phase after 24 hrs by PI/RNase staining based flow cytometry analysis. Format: functional.
The test system of series [12] is A549. The experiment in a line: Induction of cell cycle arrest in human A549 cells assessed as accumulation of cells at S phase after 24 hrs by PI/RNase staining based flow cytometry analysis. It counts as functional.
Series [13] relates to A549. The series can be described thus: Induction of apoptosis in human A549 cells by AO/EtBr staining based fluorescence microscopic analysis. Format: functional, cell-based.

Calls of active or inactive are those of the source. The calls are words filed in the database; no cut-off is given here.

For the compound `O=C(N/N=C1\CCNc2c1cc(Cl)cc2[N+](=O)[O-])c1ccccc1O`, the Activity entry in [1] was “Non-Toxic”; with A549 [2] it was “Dose-Dependent Effect”; in the series on A549 [5] it was “Dose-Dependent Effect”; in the series with A549 [7], “Dose-Dependent Effect”; in [8] it was “Non-Toxic”; in series [10] it was “Non-Toxic”. Also, the IC50 – broadly, the concentration that gives 50% inhibition – was 21.3 µM in the series on HeLa, 15.3 µM in the series with A549 [3] and 18.4 µM in the series with MCF7. For the same compound, the result with A549 [4], in the series with A549 [6], in the series with A549 [9], in the series on A549 [11], in the series with A549 [12] and in the series with A549 [13] was Active.

Take `O=C(N/N=C1\CCNc2c1cccc2[N+](=O)[O-])c1cccnc1`: the IC50 in the series on HeLa was determined as 29.2 µM; with A549 [3], 21.5 µM; in the series on MCF7, 23.3 µM. In addition, in series [10], the Activity entry was “Non-Toxic”.

As for `O=C(N/N=C1\CCNc2c1cccc2[N+](=O)[O-])c1cccs1`, the IC50 in the series with HeLa is 29.6 µM; with A549 [3], 26.3 µM; in the series with MCF7 it was 22.8 µM. In addition, in [10], the Activity result was “Non-Toxic”.

`COc1cccc2c1C(=O)c1c(O)c3c(c(O)c1C2=O)C[C@@](O)(C(=O)CO)C[C@@H]3O[C@H]1C[C@H](N)[C@H](O)[C@H](C)O1` [DOXORUBICIN]: the concentration for half-maximal inhibition (IC50) came out at 13.5 µM with HeLa and 11.6 µM in the series with MCF7. In series [10], the Activity entry is given as “Non-Toxic”.

For the compound `O=C(N/N=C1\CCNc2c1cc(Cl)cc2[N+](=O)[O-])c1ccco1`, the IC50 with HeLa amounted to 32.5 µM; in the series on A549 [3], 24.5 µM; in the series with MCF7, 25.5 µM. Moreover, the Activity result in [10] is reported as “Non-Toxic”.

Take `O=C(N/N=C1\CCNc2c1cc(Cl)cc2[N+](=O)[O-])c1cccnc1`: the figures for the IC50 with HeLa, in the series with A549 [3] and with MCF7 were 26.8 µM, 23.1 µM and 20.5 µM, respectively. The Activity entry in [10] is reported as “Non-Toxic”.

As to `O=C(N/N=C1\CCNc2c1cccc2[N+](=O)[O-])c1ccco1`, the IC50 with HeLa worked out at 30.4 µM; in the series on A549 [3], 18.3 µM; in the series with MCF7, 22.5 µM. In addition, in [10], the Activity entry is “Non-Toxic”.

For `O=C(N/N=C1\CCNc2c1cc(Cl)cc2[N+](=O)[O-])c1cccs1`, the Activity entry was “Non-Toxic” in [1]; “Dose-Dependent Effect” in the series on A549 [2]; “Dose-Dependent Effect” with A549 [5]; “Dose-Dependent Effect” in the series with A549 [7]; “Non-Toxic” in series [8]; “Non-Toxic” in series [10]. The half-maximal inhibitory concentration (IC50) came to 20.1 µM with HeLa, 17.1 µM in the series on A549 [3] and 19.2 µM in the series with MCF7. For the same compound, the result with A549 [4], in the series on A549 [6], with A549 [9], with A549 [11], with A549 [12] and in the series with A549 [13] was Active.

In the case of `O=C(N/N=C1\CCNc2c1cccc2[N+](=O)[O-])c1ccccc1O`, the values for the half-inhibitory concentration (IC50) with HeLa, with A549 [3] and in the series on MCF7 were 24.5 µM, 15.8 µM and 20.2 µM, respectively. Also, the Activity entry in [10] is recorded as “Non-Toxic”.
